Test results reported in ChEMBL document CHEMBL1201862, “PubChem BioAssay data set” (2004).
Blank lines part the entries; values can stand above or below the molecule they belong to. Active and inactive are the calls of the source.

Key:
BJ [1] = test: cells; format: functional, cell-based; conditions: Homo sapiens
[2] = target: T1, Type-1 angiotensin II receptor (Homo sapiens, UniProt P30556); test: agonist activity at AGTR1 – cell-based, uHTS hits, selectivity assay for APJ receptor agonist project, dose response (AID 488865); format: functional;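 note: beta-arrestin recruitment to AT1 measured by enzyme fragment complementation luminescence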
T1 sequence (P30556 whole entry): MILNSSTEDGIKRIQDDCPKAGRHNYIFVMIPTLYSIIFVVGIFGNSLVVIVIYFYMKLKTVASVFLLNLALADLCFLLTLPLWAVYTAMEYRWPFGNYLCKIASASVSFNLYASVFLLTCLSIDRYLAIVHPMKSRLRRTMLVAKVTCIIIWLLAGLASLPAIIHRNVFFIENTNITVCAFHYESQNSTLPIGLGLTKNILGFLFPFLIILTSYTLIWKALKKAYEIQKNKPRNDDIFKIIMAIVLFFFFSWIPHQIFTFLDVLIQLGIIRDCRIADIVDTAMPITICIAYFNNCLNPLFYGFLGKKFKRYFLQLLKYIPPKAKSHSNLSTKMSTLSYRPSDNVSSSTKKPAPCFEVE

BJ [3] = test: BJ-TERT fibroblast viability loss – cell-based, RAS-independent, luminescence, dose response (AID 1933); format: functional; conditions: Homo sapiens
[4] = target: T2, Ubiquitin-conjugating enzyme E2 N (Homo sapiens, UniProt P61088); format: functional
T2 sequence (P61088 whole entry): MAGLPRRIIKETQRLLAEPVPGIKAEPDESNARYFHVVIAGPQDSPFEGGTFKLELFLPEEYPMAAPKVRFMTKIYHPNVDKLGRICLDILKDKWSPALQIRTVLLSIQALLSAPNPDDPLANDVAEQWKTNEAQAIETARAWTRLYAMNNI

[5] = target: T3, Heat shock factor protein 1 (Mus musculus, UniProt P38532); test: decrease of HSF1-responsive luciferase luminescence – cell-based, NIH3T3, dose retest, confirmation (AID 2382); format: functional;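 note: NIH3T3 fibroblasts with HSF1-driven luciferase reporter stressed by proteasome inhibitor MG132; luminescence from HSF1-driven luciferase expression after 8 hours of MG132 stress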
T3 sequence (P38532 whole entry): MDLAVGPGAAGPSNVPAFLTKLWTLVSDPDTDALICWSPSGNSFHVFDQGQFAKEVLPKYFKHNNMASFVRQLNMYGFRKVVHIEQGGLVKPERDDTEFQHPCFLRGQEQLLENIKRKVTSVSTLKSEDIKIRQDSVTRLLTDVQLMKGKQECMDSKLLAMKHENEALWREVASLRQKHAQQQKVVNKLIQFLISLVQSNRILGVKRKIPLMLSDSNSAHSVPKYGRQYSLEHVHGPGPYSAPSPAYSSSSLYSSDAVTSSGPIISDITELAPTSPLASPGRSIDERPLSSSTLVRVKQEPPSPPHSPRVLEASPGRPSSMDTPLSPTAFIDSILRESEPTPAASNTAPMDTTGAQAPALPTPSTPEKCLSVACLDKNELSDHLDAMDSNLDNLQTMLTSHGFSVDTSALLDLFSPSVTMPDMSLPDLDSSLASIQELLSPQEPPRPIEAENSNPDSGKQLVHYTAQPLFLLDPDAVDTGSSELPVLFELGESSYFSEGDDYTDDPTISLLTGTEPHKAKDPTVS

BJ [6] = test: growth inhibition of engineered Ras-driven BJ cells – cell-based, alamar blue fluorescence, cherrypicked samples, dose response (AID 2631); format: functional; conditions: Homo sapiens;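 note: confirmatory dose-response assay in RAS-dependent BJ fibroblasts engineered with TERT, LT and ST, with cytotoxicity read by fluorescence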
[7] = DRD fibroblast viability loss – cell-based, non-viral oncogenic, luminescence, dose response (AID 1934); format: functional; conditions: Homo sapiens
[8] = target: T2, Ubiquitin-conjugating enzyme E2 N; format: functional; remark: listed apart in the source
INS1 = test: INS-1E survival protection against cytokine death – cell-based, luminescence, retest, dose response (AID 449756); format: functional; conditions: Rattus norvegicus;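 note: cell death triggered by IL-1 beta plus TNF-alpha plus IFN-gamma mixture; protective hits raise ATP signal compared with cytokine alone wells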
BJ [9] = test: BJ-TERT-LT-ST fibroblast viability loss – cell-based, RAS-independent, luminescence, dose response (AID 1935); format: functional; conditions: Homo sapiens;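 note: BJ fibroblasts immortalized with TERT plus LT and ST oncogenes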
Bcl-2-related protein A1 = target: T4, Bcl-2-related protein A1 (Mus musculus, UniProt Q07440); format: functional;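 note: confirmatory dose–response counterscreen on Bfl-1, used to check hits from a UBC13 polyubiquitin inhibitor campaign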
T4 sequence (Q07440 whole entry): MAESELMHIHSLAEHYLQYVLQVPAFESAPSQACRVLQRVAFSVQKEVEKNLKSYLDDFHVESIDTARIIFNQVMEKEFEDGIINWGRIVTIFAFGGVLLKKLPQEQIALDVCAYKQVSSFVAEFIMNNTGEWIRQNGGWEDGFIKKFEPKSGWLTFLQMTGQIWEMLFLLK

[10] = target: Glutathione S-transferase omega-1 (Homo sapiens, UniProt P78417); test: IC50 of human GSTO1 blockade by gel ABPP – biochemical, SE-Rh probe, in-gel fluorescence, powder samples, set 2, late-stage follow-up (AID 463142); format: functional
Sequence of Glutathione S-transferase omega-1 (P78417 whole entry): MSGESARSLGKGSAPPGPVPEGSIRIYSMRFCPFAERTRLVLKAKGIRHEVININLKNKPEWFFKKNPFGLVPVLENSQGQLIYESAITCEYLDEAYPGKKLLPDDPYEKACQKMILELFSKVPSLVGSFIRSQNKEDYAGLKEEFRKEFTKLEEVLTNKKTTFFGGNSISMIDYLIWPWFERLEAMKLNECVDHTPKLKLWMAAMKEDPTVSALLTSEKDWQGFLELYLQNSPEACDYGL

NADPH oxidase 2 = NADPH oxidase 2 (Homo sapiens, UniProt P04839); test: PubChem AID 435013
Sequence of NADPH oxidase 2 (P04839 whole entry): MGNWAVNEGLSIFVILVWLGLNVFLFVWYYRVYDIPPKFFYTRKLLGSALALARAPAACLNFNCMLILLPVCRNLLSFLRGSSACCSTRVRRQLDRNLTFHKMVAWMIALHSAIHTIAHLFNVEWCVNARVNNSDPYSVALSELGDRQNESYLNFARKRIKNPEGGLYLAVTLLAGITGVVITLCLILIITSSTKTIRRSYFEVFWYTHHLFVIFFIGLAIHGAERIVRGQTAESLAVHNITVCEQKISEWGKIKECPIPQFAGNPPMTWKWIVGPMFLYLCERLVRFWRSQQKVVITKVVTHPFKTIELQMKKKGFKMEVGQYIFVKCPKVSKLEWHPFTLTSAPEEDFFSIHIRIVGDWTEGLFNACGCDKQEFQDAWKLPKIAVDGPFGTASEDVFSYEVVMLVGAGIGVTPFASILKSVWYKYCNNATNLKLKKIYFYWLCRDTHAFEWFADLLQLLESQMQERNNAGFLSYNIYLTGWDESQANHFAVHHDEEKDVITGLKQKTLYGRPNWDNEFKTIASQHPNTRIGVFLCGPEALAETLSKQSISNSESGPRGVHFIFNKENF

NADPH oxidase 3 = NADPH oxidase 3 (Homo sapiens, UniProt Q9HBY0); test: PubChem AID 435013
Sequence of NADPH oxidase 3 (Q9HBY0 whole entry): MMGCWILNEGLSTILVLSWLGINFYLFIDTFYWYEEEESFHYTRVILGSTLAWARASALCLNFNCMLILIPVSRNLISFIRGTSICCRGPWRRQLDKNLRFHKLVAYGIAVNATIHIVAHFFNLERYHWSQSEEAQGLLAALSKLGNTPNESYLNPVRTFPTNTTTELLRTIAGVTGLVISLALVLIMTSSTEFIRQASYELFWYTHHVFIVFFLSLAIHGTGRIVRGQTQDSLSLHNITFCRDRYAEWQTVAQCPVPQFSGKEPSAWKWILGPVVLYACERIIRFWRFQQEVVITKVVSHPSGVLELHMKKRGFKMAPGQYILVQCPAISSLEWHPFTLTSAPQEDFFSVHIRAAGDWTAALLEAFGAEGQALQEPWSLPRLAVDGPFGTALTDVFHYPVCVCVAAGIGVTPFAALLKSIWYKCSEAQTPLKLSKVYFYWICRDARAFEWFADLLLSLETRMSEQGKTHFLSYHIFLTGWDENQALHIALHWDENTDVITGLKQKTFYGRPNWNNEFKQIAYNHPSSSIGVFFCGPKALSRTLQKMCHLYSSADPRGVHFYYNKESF

NADPH oxidase 1 [11] = target: T5, NADPH oxidase 1 (Homo sapiens, UniProt Q9Y5S8); format: functional, cell-based;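 note: Cell-based assay with luminescence read-out, IC50 derived from inhibitor dose-response curves; intracellular ROS from endogenous NOX1 in intact HT29 colon cancer cells; potency of inhibitors that lower the ROS luminescence signal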
T5 sequence (Q9Y5S8 whole entry): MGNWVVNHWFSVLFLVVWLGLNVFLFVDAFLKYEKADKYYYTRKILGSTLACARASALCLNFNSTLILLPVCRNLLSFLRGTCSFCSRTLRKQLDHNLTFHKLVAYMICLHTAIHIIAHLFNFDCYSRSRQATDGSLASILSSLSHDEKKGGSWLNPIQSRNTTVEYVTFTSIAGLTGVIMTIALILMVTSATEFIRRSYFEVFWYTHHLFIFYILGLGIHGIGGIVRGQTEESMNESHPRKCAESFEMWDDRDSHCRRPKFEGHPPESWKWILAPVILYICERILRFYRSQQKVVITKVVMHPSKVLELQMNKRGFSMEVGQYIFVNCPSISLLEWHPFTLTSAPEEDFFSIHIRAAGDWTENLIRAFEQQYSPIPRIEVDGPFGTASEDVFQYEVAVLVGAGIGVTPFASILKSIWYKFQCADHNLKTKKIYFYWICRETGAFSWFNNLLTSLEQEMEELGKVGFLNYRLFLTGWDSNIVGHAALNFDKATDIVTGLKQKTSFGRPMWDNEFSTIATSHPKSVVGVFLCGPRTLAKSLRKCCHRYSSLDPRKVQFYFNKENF

NADPH oxidase 1 [12] = target: T5, NADPH oxidase 1; test: HEK293 ROS counter-screen potency – cell-based, IC50, set 2, counter-screen for NOX1 inhibitor project, late-stage follow-up (AID 435002); format: functional
[13] = target: Intestinal-type alkaline phosphatase (Mus musculus, UniProt P24822); test: PubChem AID 488785; format: functional
Sequence of Intestinal-type alkaline phosphatase (Mus musculus, UniProt P24822) (P24822 whole entry): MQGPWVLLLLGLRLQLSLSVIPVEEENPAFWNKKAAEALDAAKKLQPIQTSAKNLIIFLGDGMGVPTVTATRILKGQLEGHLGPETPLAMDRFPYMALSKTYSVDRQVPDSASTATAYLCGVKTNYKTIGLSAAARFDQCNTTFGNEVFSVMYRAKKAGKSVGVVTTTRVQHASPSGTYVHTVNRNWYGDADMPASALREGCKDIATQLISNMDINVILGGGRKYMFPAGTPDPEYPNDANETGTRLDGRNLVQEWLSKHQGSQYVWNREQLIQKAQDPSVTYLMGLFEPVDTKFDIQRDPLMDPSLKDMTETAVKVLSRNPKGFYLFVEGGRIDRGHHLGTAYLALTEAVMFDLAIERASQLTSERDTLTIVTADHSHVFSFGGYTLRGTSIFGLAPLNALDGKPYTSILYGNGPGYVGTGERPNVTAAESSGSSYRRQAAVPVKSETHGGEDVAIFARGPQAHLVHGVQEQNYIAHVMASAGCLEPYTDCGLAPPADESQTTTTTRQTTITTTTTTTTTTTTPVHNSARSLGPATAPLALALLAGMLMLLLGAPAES

[14] = target: Intestinal-type alkaline phosphatase (Homo sapiens, UniProt P09923); test: inhibition of human intestinal alkaline phosphatase – biochemical, dose response (AID 488876); format: functional
Sequence of Intestinal-type alkaline phosphatase (Homo sapiens, UniProt P09923) (P09923 whole entry): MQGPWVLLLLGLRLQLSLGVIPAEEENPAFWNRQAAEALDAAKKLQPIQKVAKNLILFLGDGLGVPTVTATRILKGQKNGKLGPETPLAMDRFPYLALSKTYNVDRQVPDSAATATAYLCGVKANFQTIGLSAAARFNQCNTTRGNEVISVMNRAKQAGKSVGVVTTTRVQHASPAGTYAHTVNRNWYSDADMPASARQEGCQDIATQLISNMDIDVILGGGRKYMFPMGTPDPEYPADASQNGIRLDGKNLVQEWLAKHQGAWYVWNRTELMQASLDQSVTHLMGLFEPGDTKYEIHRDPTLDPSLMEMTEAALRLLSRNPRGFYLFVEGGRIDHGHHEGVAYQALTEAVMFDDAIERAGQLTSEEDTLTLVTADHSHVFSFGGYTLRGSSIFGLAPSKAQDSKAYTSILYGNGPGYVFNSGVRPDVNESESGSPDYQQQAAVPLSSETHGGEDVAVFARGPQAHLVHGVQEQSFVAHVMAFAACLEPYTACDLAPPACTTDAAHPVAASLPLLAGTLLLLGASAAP

[15] = target: Alkaline phosphatase, placental type (Homo sapiens, UniProt P05187); test: human placental alkaline phosphatase inhibition – biochemical, luminescence, confirmation (AID 1512); format: functional
Sequence of Alkaline phosphatase, placental type (P05187 whole entry): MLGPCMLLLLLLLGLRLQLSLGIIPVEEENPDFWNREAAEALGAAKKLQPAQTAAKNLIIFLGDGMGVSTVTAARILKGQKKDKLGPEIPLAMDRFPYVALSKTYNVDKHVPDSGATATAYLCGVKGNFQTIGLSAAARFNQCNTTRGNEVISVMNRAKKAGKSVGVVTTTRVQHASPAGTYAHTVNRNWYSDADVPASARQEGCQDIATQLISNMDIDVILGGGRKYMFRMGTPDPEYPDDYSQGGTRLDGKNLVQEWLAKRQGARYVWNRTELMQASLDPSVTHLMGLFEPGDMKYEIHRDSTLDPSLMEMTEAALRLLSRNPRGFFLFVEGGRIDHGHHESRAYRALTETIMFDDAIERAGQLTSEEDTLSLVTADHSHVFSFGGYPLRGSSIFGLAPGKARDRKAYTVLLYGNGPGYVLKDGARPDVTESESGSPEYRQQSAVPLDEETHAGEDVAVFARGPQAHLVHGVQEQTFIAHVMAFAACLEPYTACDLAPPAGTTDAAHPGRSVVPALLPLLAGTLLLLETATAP

Structure (SMILES): COc1ccc(OC)c2sc(N(CCCN(C)C)C(=O)c3ccc(S(=O)(=O)N4CCc5ccccc5C4)cc3)nc12
- EC50 (BJ [1]): 2.43 µM (active)
- EC50 [2]: > 100 µM (inactive)
- EC50 (BJ [3]): 0.357 µM (inconclusive)
- IC50 [4]: 1.27 µM (active)
- EC50 [5]: 5.01 µM (active)
- EC50 (BJ [6]): 0.289 µM (active)
- EC50 [7]: 1.27 µM (inconclusive)
- IC50 [8]: 2.47 µM (active)
- AC50 (INS1): 1.75 µM (active)
- EC50 (BJ [9]): 0.432 µM (inconclusive)
- IC50 (Bcl-2-related protein A1): 8.51 µM (active)

- IC50 [10]: 0.034 µM (active)
Structure (SMILES): O=C(CCl)N(CCCCCNC(=O)C(F)(F)F)c1ccc([N+](=O)[O-])cc1

- IC50 (NADPH oxidase 2): > 50 µM (inactive)
- IC50 (NADPH oxidase 3): > 50 µM (inactive)
- IC50 (NADPH oxidase 1 [11]): 0.43 µM (active)
- IC50 (NADPH oxidase 1 [12]): 10 µM (active)
Structure (SMILES): Oc1c(Br)cc(/C=N/Nc2c(Cl)cncc2Cl)cc1Br

- IC50 [13]: 7.54 µM (active)
- IC50 [14]: 9.59 µM (active)
- IC50 [15]: > 100 µM (inactive)
Structure (SMILES): C=C(C)c1cccc(C(C)(C)NC(=O)NC(c2ccccc2)c2ccc(OC)cc2)c1 (centres undefined)
